Experiments:
Format in all cases: cell-based, mouse
[1] = system: α7 integrin (LacZ reporter in α7βgal+/− myoblasts); experiment: Myoblast α7+/LacZ integrin FDG assay (Burkin assay in myoblasts, 96-well); details: α7+/LacZ myoblasts, 96-well
[2] = system: α7 integrin (LacZ reporter in α7+/LacZ myotubes); experiment: Myotube α7 integrin FDG assay (Burkin assay in myotubes, 96-well); details: myotubes
[3] = system: β-galactosidase in CMV-LacZ C2C12 myoblasts; experiment: CMV-LacZ secondary screen in C2C12 myoblasts (β-Gal stabilizing assay); details: CMV-LacZ C2C12 myoblasts
Outline: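 A secondary screen identifies compounds that stabilize β-gal independently of the native promoter, using CMV-LacZ C2C12 cells. Curves span 0.5–40 μM at six levels, in duplicate.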

[4] = system: β-galactosidase in CMV-LacZ C2C12 myotubes; experiment: CMV-LacZ secondary screen in C2C12 myotubes (β-Gal stabilizing assay); details: C2C12 CMV-LacZ myotubes, fold relative to DMSO
Outline: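 β-Gal level was the read-out, measured in a clonal C2C12 line expressing LacZ from a CMV promoter. Dose-response curves used six concentrations, 0.5 μM up to 40 μM, with duplicate points.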

| Structure (SMILES) | Burkin Assay in Myoblasts, signal relative to DMSO ([1]; 0.5 uM) | Burkin Assay in Myoblasts, signal relative to DMSO ([1]; 1 uM) | Burkin Assay in Myoblasts, signal relative to DMSO ([1]; 5 uM) | Burkin Assay in Myoblasts, signal relative to DMSO ([1]; 10 uM) | Burkin Assay in Myoblasts, signal relative to DMSO ([1]; 20 uM) | Burkin Assay in Myoblasts, signal relative to DMSO ([1]; 40 uM) | Burkin Assay in Myotubes, α7 integrin LacZ reporter signal relative to DMSO ([2]; 0.5 uM) | Burkin Assay in Myotubes, α7 integrin LacZ reporter signal relative to DMSO ([2]; 1 uM) | Burkin Assay in Myotubes, α7 integrin LacZ reporter signal relative to DMSO ([2]; 5 uM) | Burkin Assay in Myotubes, α7 integrin LacZ reporter signal relative to DMSO ([2]; 10 uM) | Burkin Assay in Myotubes, α7 integrin LacZ reporter signal relative to DMSO ([2]; 20 uM) | Burkin Assay in Myotubes, α7 integrin LacZ reporter signal relative to DMSO ([2]; 40 uM) | CMV-LACZ in Myoblasts (β-galactosidase activity relative to DMSO) ([3]; 0.5 uM) | CMV-LACZ in Myoblasts (β-galactosidase activity relative to DMSO) ([3]; 1 uM) | CMV-LACZ in Myoblasts (β-galactosidase activity relative to DMSO) ([3]; 5 uM) | CMV-LACZ in Myoblasts (β-galactosidase activity relative to DMSO) ([3]; 10 uM) | CMV-LACZ in Myoblasts (β-galactosidase activity relative to DMSO) ([3]; 20 uM) | CMV-LACZ in Myoblasts (β-galactosidase activity relative to DMSO) ([3]; 40 uM) | CMV-LACZ in Myotubes, signal relative to DMSO ([4]; 0.5 uM) | CMV-LACZ in Myotubes, signal relative to DMSO ([4]; 1 uM) | further results |
| --- | --- | --- | --- | --- | --- | --- | --- | --- | --- | --- | --- | --- | --- | --- | --- | --- | --- | --- | --- | --- | --- |
| CCOc1ccccc1NC(=O)c1cccc2c1C(=O)N(C1CCCCC1)C2 [MLS000912726-01] | 1.279 | 1.177 | 0.9838 | 1.02 | 1.1258 | 1.022 | 1.066 | 0.8889 | 0.8818 | 0.886 | 0.8231 | 0.8237 | 1.1004 | 0.9692 | 1.0182 | 1.0325 | 1.0257 | 1.0643 | 0.8527 | 0.9264 | CMV-LACZ in Myotubes, signal relative to DMSO ([4]; 5 uM): 0.9111; CMV-LACZ in Myotubes, signal relative to DMSO ([4]; 10 uM): 1.1041; CMV-LACZ in Myotubes, signal relative to DMSO ([4]; 20 uM): 1.2060; CMV-LACZ in Myotubes, signal relative to DMSO ([4]; 40 uM): 1.0150 |
| O=C(Nc1ccccc1Cl)C1CCCN1C(=O)OCc1ccccc1 (stereo not drawn) [MLS001030621-01] | 1.004 | 1.158 | 1.15 | 1.161 | 1.001 | 1.01 | 0.9724 | 0.9493 | 0.999 | 0.9429 | 0.7954 | 0.7203 | 0.7081 | 1.0531 | 1.0494 | 1.1844 | 1.0307 | 0.9063 | 0.7844 | 0.7970 | CMV-LACZ in Myotubes, signal relative to DMSO ([4]; 5 uM): 0.9872; CMV-LACZ in Myotubes, signal relative to DMSO ([4]; 10 uM): 1.0546; CMV-LACZ in Myotubes, signal relative to DMSO ([4]; 20 uM): 0.9024; CMV-LACZ in Myotubes, signal relative to DMSO ([4]; 40 uM): 1.0141 |
| CC1Cc2ccccc2N1C(=O)CSc1nnc(N)s1 (stereo not drawn) [MLS001160611-01] | 1.1058 | 0.9767 | 1.004 | 1.115 | 0.9749 | 0.9267 | 0.9452 | 0.8628 | 1.006 | 1.169 | 0.8397 | 1.24 | 1.2070 | 0.8157 | 1.0117 | 1.0340 | 0.8144 | 1.0389 | 0.9762 | 1.2419 | CMV-LACZ in Myotubes, signal relative to DMSO ([4]; 5 uM): 0.8306; CMV-LACZ in Myotubes, signal relative to DMSO ([4]; 10 uM): 0.9661; CMV-LACZ in Myotubes, signal relative to DMSO ([4]; 20 uM): 1.0240; CMV-LACZ in Myotubes, signal relative to DMSO ([4]; 40 uM): 0.9190 |

Reference: US9980943B2, “Methods of treating muscular dystrophy” (BOARD OF REGENTS OF THE NEVADA SYSTEM OF HIGHER EDUCATION, …, priority 2013, dated 2018)
